Results as given in patent publication US7662364B2, “Drug for hyperphospheremia and its preparative method” (priority 2006, dated 2010).
Like-named read-outs stand apart in the source and are kept apart here.

Details: for Removing phosphate %: 0.5 g in 100 ml, 37° C.
Procedure: Lanthanum carbonate 0.5 g was added to 0.85% NaCl solution 100 ml (pH 6.8) and 0.85% NaCl solution 100 ml (pH7.8), respectively. Then, sufficient quantities of Na2HPO4 were added to the two solutions, stirred at 37° C. Filtered solutions were obtained at 10 min, 30 min, 40 min and 60 min, respectively. Phosphate content was determined and the percentage of removing phosphate was computed.

For `O=C([O-])[O-].O=C([O-])[O-].O=C([O-])[O-].[La+3].[La+3]` [Lanthanum carbonate], which Removing phosphate % (0.85% NaCl pH 6.8, 10 min) is on record?
The Removing phosphate % was 6.7%.

What about the Removing phosphate % (0.85% NaCl pH 6.8, 30 min) of the same compound?
The Removing phosphate % was 13.7%.

And the Removing phosphate % (0.85% NaCl pH 6.8, 40 min)?
The Removing phosphate % was 16.9%.

And the Removing phosphate % (0.85% NaCl pH 6.8, 60 min)?
Its Removing phosphate % is 20.8%.

And the Removing phosphate % (0.85% NaCl pH 7.8, 10 min)?
The Removing phosphate % was 1.4%.

And the Removing phosphate % (0.85% NaCl pH 7.8, 30 min)?
Its Removing phosphate % is less than 2.0%.

What about the Removing phosphate % (0.85% NaCl pH 7.8, 40 min) of the same compound?
Its Removing phosphate % is less than 2.0%.

What about the Removing phosphate % (0.85% NaCl pH 7.8, 60 min) of the same compound?
Its Removing phosphate % is less than 2.0%.

And the “phosphate removal, result in words” value (solution whose PH was similar to that of human large intestine (pH 7.8))?
The value was “unable to remove phosphate”.

What about the “phosphate removal, result in words” value (solution whose PH was similar to that of human small intestine (pH 6.8)) of the same compound?
Its value is “removed less phosphate”.
